# Results as given in ChEMBL document CHEMBL3727348, “3-(aryl or heteroaryl) methyleneindolin-2-one derivatives as inhibitors of cancer stem cell pathway kinases for the treatment of cancer” (2014).
# Experiments:
# Type in all cases: functional, cell-based
# [1] = system: FaDu; test: Cytotoxic activity against human FADU cancer stem cells incubated for 72 hrs by Cell-titer-Glo luminescence assay
# [2] = system: A549; test: Cytotoxic activity against human A549 bulk cells incubated for 72 hrs by Cell-titer-Glo luminescence assay; details: A549, 72 h
# [3] = system: FaDu; test: Cytotoxic activity against human FADU bulk cells incubated for 72 hrs by Cell-titer-Glo luminescence assay
# [4] = system: A549; test: Cytotoxic activity against human A549 cancer stem cells incubated for 72 hrs by Cell-titer-Glo luminescence assay; details: A549, 72 h
# [5] = system: ACHN; test: Cytotoxic activity against human ACHN bulk cells incubated for 72 hrs by Cell-titer-Glo luminescence assay
# [6] = system: ACHN; test: Cytotoxic activity against human ACHN cancer stem cells incubated for 72 hrs by Cell-titer-Glo luminescence assay
compound,measurement,setting,value
Cc1cc(C)c(/C=C2\C(=O)Nc3ccc(-c4cnc5cccnn45)cc32)[nH]1,IC50,[1],1.55 µM
same,IC50,[2],12.5 µM
same,IC50,[3],5.23 µM
same,IC50,[4],8.66 µM
Cc1ccc(-c2ccc3c(c2)/C(=C/c2[nH]c(C)cc2C)C(=O)N3)cn1,IC50,[5],24.9 µM
same,IC50,[2],25.8 µM
same,IC50,[6],0.01 µM
O=C1Nc2ccc(-c3csc(C4CCNCC4)n3)cc2/C1=C/c1cc2ccccc2[nH]1,IC50,[1],0.76 µM
same,IC50,[5],4.12 µM
same,IC50,[2],5.55 µM
same,IC50,[6],0.1 µM
same,IC50,[3],5.16 µM
same,IC50,[4],2.04 µM
CCN(CC)CCNC(=O)c1c(C)[nH]c(/C=C2\C(=O)Nc3ccc(-c4ccccn4)cc32)c1C,IC50,[1],0.18 µM
same,IC50,[5],2.26 µM
same,IC50,[2],7.23 µM
same,IC50,[6],1.06 µM
same,IC50,[3],2.56 µM
same,IC50,[4],5.45 µM
CCN(CC)CCNC(=O)c1c(C)[nH]c(/C=C2\C(=O)Nc3ccc(-c4cnc5ccccc5c4)cc32)c1C,IC50,[1],5.47 µM
same,IC50,[5],6.39 µM
same,IC50,[2],3.85 µM
same,IC50,[6],0.62 µM
same,IC50,[3],4.59 µM
same,IC50,[4],6.83 µM
CCN(CC)CCNC(=O)c1c(C)[nH]c(/C=C2\C(=O)Nc3ccc(-c4cccc(OC)n4)cc32)c1C,IC50,[1],0.19 µM
same,IC50,[5],1.96 µM
same,IC50,[2],2.79 µM
same,IC50,[6],0.24 µM
same,IC50,[3],1.76 µM
same,IC50,[4],2.24 µM
CCN(CC)CCNC(=O)c1c(C)[nH]c(/C=C2\C(=O)Nc3ccc(-c4cnc(SC)cn4)cc32)c1C,IC50,[5],12.3 µM
same,IC50,[2],6.06 µM
same,IC50,[3],5.96 µM
same,IC50,[4],30 µM
O=C1Nc2ccc(-c3csc(-c4ccncc4)n3)cc2/C1=C/c1cnc[nH]1,IC50,[1],22.1 µM
same,IC50,[5],3.61 µM
same,IC50,[2],9.19 µM
same,IC50,[6],28.9 µM
same,IC50,[3],1.66 µM
same,IC50,[4],7.18 µM
Cc1cc(C)c(/C=C2\C(=O)Nc3cc(-c4cnc5ccccc5n4)ccc32)[nH]1,IC50,[1],8.8 µM
same,IC50,[2],18.2 µM
same,IC50,[6],2.54 µM
same,IC50,[4],5.83 µM
Cc1ccc(-c2nc(-c3ccc4c(c3)/C(=C/c3[nH]c(C)c(C(=O)NCCN5CCCC5)c3C)C(=O)N4)cs2)cc1,IC50,[1],0.31 µM
same,IC50,[5],2.32 µM
same,IC50,[2],5.99 µM
same,IC50,[6],0.14 µM
same,IC50,[3],4.22 µM
same,IC50,[4],12.2 µM
Cc1[nH]c(/C=C2\C(=O)Nc3ccc(-c4cnn(-c5ccccn5)c4)cc32)c(C)c1C(=O)N1CCN(C)CC1,IC50,[1],0.24 µM
same,IC50,[2],18.9 µM
same,IC50,[3],3.67 µM
same,IC50,[4],11.7 µM
Cc1cc(C)c(/C=C2\C(=O)Nc3ccc(-c4csc(-n5cccn5)n4)cc32)[nH]1,IC50,[1],27.2 µM
same,IC50,[5],9 µM
same,IC50,[2],9.76 µM
same,IC50,[3],20.8 µM
same,IC50,[4],16.2 µM
CCN(CC)CCNC(=O)c1c(C)[nH]c(/C=C2\C(=O)Nc3ccc(-c4ccc(C(=O)O)s4)cc32)c1C,IC50,[1],4.3 µM
same,IC50,[5],2.04 µM
same,IC50,[2],2.2 µM
same,IC50,[6],2.28 µM
same,IC50,[3],1.21 µM
same,IC50,[4],8.82 µM
CCN(CC)CCNC(=O)c1c(C)[nH]c(/C=C2\C(=O)Nc3cc(-c4ccc(-c5ccccc5)nc4)ccc32)c1C,IC50,[1],1.12 µM
same,IC50,[2],14.8 µM
same,IC50,[6],0.21 µM
same,IC50,[4],3.59 µM
O=C1Nc2ccc(-c3csc(-c4ccccc4)n3)cc2/C1=C/c1cnc[nH]1,IC50,[1],6.32 µM
same,IC50,[5],8.74 µM
same,IC50,[2],11.2 µM
same,IC50,[3],6.14 µM
same,IC50,[4],0.9 µM
O=C1Nc2ccc(-c3csc(-c4ccncc4)n3)cc2/C1=C/c1ncc[nH]1,IC50,[5],0.29 µM
same,IC50,[2],14.8 µM
same,IC50,[6],9.21 µM
same,IC50,[3],3.42 µM
same,IC50,[4],2.6 µM
CCN(CC)CCNC(=O)c1c(C)[nH]c(/C=C2\C(=O)Nc3ccc(-c4csc(-c5cccc(CCC(=O)O)c5)n4)cc32)c1C,IC50,[1],4.88 µM
same,IC50,[5],1.27 µM
same,IC50,[3],1.77 µM
same,IC50,[4],4.21 µM
Cc1cc(C)c(/C=C2\C(=O)Nc3ccc(-c4ncccn4)cc32)[nH]1,IC50,[1],25.2 µM
same,IC50,[5],25.3 µM
same,IC50,[3],26.1 µM
same,IC50,[4],28.7 µM
Cc1cc(C)c(/C=C2\C(=O)Nc3ccc(-c4ccncc4)cc32)[nH]1,IC50,[6],6.95 µM
CCN(CC)CCN1CCCc2[nH]c(/C=C3\C(=O)Nc4ccc(-c5csc(C6CCNCC6)n5)cc43)c(C)c2C1=O,IC50,[2],7.06 µM
same,IC50,[6],11.9 µM
same,IC50,[3],8.67 µM
Cc1cc(C)c(/C=C2\C(=O)Nc3ccc(-c4ncccc4C)cc32)[nH]1,IC50,[1],41.1 µM
same,IC50,[5],7.95 µM
same,IC50,[2],22.4 µM
same,IC50,[6],0.01 µM
CCN(CC)CCNC(=O)c1c(C)[nH]c(/C=C2\C(=O)Nc3cc(-c4cnc5ccccc5c4)ccc32)c1C,IC50,[1],2.83 µM
same,IC50,[2],15.8 µM
same,IC50,[6],1.07 µM
same,IC50,[3],12.9 µM
same,IC50,[4],11.6 µM
Cc1[nH]c(/C=C2\C(=O)Nc3ccc(-c4cnn(-c5ccccc5)c4)cc32)c(C)c1C(=O)N1CCN(C)CC1,IC50,[1],0.31 µM
same,IC50,[5],3.4 µM
same,IC50,[2],6.91 µM
same,IC50,[3],3.62 µM
same,IC50,[4],4.49 µM
CCN(CC)CCNC(=O)c1c(C)[nH]c(/C=C2\C(=O)Nc3ccc(-c4csc(-c5ccc(C)cc5)n4)cc32)c1C,IC50,[1],3.4 µM
same,IC50,[6],0.69 µM
same,IC50,[4],10.5 µM
Cc1ccc(-c2nc(-c3ccc4c(c3)/C(=C/c3[nH]c(C)c(C(=O)N5CCN(C)CC5)c3C)C(=O)N4)cs2)cc1,IC50,[1],1.98 µM
same,IC50,[5],4.25 µM
same,IC50,[2],8.55 µM
same,IC50,[3],7.87 µM
same,IC50,[4],0.45 µM
CCN(CC)CCNC(=O)c1c(C)[nH]c(/C=C2\C(=O)Nc3ccc(-c4n[nH]c5c(N)cccc45)cc32)c1C,IC50,[1],28.4 µM
same,IC50,[5],12 µM
same,IC50,[2],11.6 µM
same,IC50,[6],30.9 µM
same,IC50,[3],7.09 µM
O=C1Nc2ccc(-c3csc(-c4ccncc4)n3)cc2/C1=C/c1cc2c([nH]1)CCCC2,IC50,[5],37.8 µM
same,IC50,[4],0.8 µM
Cc1cc(C)c(/C=C2\C(=O)Nc3ccc(-c4cnsc4)cc32)[nH]1,IC50,[1],43.4 µM
same,IC50,[5],42.8 µM
same,IC50,[6],17.1 µM
same,IC50,[3],26.7 µM
CCN(CC)CCNC(=O)c1c(C)[nH]c(/C=C2\C(=O)Nc3ccc(-c4csc(C5CCNC5)n4)cc32)c1C (configuration not stated),IC50,[5],6.75 µM
same,IC50,[2],0.72 µM
same,IC50,[3],2.42 µM
same,IC50,[4],32.5 µM
CCN(CC)CCNC(=O)c1c(C)[nH]c(/C=C2\C(=O)Nc3ccc(-c4ccc5ccccc5n4)cc32)c1C,IC50,[5],2.74 µM
same,IC50,[2],1.8 µM
same,IC50,[6],0.33 µM
same,IC50,[3],0.92 µM
same,IC50,[4],1.51 µM
CCN(CC)CCNC(=O)c1c(C)[nH]c(/C=C2\C(=O)Nc3ccc(-c4csc(C(=O)O)c4)cc32)c1C,IC50,[1],14.1 µM
same,IC50,[5],7.74 µM
same,IC50,[2],7.79 µM
same,IC50,[6],1.28 µM
same,IC50,[4],14.1 µM
CCOC(=O)c1[nH]c(/C=C2\C(=O)Nc3ccc(-c4csc(-c5ccccc5)n4)cc32)c2c1CCCC2,IC50,[1],2.91 µM
same,IC50,[5],0.83 µM
same,IC50,[6],1.6 µM
CSc1cnc(-c2ccc3c(c2)/C(=C/c2[nH]c(C)cc2C)C(=O)N3)cn1,IC50,[5],0.16 µM
same,IC50,[2],35.8 µM
same,IC50,[6],18.3 µM
O=C1Nc2ccc(-c3csc(-c4ccccc4)n3)cc2/C1=C/c1cc2c([nH]1)CCCC2,IC50,[1],4.09 µM
same,IC50,[5],34.6 µM
same,IC50,[6],2.52 µM
same,IC50,[3],20.2 µM
same,IC50,[4],1.42 µM
O=C1Nc2ccc(-c3csc(-c4ccccc4)n3)cc2/C1=C/c1[nH]cc2ccccc12,IC50,[1],5.04 µM
same,IC50,[6],4.08 µM
Cc1ccc(-c2ccc3c(c2)NC(=O)/C3=C\c2[nH]c(C)cc2C)cn1,IC50,[1],3.61 µM
same,IC50,[5],22 µM
same,IC50,[6],4.55 µM
same,IC50,[4],23.7 µM
CCN(CC)CCNC(=O)c1c(C)[nH]c(/C=C2\C(=O)Nc3ccc(-c4csc(-c5ccc(CCC(=O)O)cc5)n4)cc32)c1C,IC50,[1],4.88 µM
same,IC50,[4],4.21 µM
Cc1cc(C)c(/C=C2\C(=O)Nc3ccc(-c4cc(-c5ccccc5)ccn4)cc32)[nH]1,IC50,[2],13.8 µM
same,IC50,[3],22.4 µM
same,IC50,[4],35.7 µM
CCN(CC)CCNC(=O)c1c(C)[nH]c(/C=C2\C(=O)Nc3ccc(-c4cnc(-c5ccccc5)cn4)cc32)c1C,IC50,[1],39.1 µM
same,IC50,[5],25.8 µM
same,IC50,[2],16.9 µM
same,IC50,[3],17.5 µM
same,IC50,[4],43.6 µM
Cc1cc(C)c(/C=C2\C(=O)Nc3ccc(-c4cnc(-c5ccccc5)cn4)cc32)[nH]1,IC50,[6],6.8 µM
CCN(CC)CCNC(=O)c1c(C)[nH]c(/C=C2\C(=O)Nc3cc(-c4ccc(-c5ccccc5)cn4)ccc32)c1C,IC50,[1],1.18 µM
same,IC50,[6],2.88 µM
same,IC50,[3],19.8 µM
same,IC50,[4],4.93 µM
CCN(CC)CCNC(=O)c1c(C)[nH]c(/C=C2\C(=O)Nc3cc(-c4ccc5ccccc5n4)ccc32)c1C,IC50,[1],5.15 µM
same,IC50,[2],16.4 µM
same,IC50,[6],1.36 µM
same,IC50,[3],16.6 µM
same,IC50,[4],6.59 µM
CCOC(=O)c1cc(C)c(/C=C2\C(=O)Nc3ccc(-c4csc(-c5ccccc5)n4)cc32)[nH]1,IC50,[5],0.39 µM
same,IC50,[2],40 µM
same,IC50,[3],13.5 µM
same,IC50,[4],13.2 µM
Cc1[nH]c(/C=C2\C(=O)Nc3ccc(-c4csc(-c5ccccc5)n4)cc32)c(C)c1S(=O)(=O)N1CCCC1,IC50,[1],6.56 µM
same,IC50,[5],12.6 µM
same,IC50,[2],2.86 µM
same,IC50,[6],5.05 µM
same,IC50,[3],5.48 µM
CCN(CC)CCNC(=O)c1c(C)[nH]c(/C=C2\C(=O)Nc3cc(-c4nccc5ccccc45)ccc32)c1C,IC50,[1],24.4 µM
same,IC50,[5],6.51 µM
same,IC50,[2],7.14 µM
same,IC50,[6],1.91 µM
same,IC50,[3],9.12 µM
Cc1cc(C)c(/C=C2\C(=O)Nc3ccc(-c4cccc5ncccc45)cc32)[nH]1,IC50,[1],13.1 µM
same,IC50,[5],13.2 µM
same,IC50,[2],11.1 µM
same,IC50,[3],13.4 µM
same,IC50,[4],40 µM
Cc1cc(C)c(/C=C2\C(=O)Nc3ccc(-c4cnc5ccccn45)cc32)[nH]1,IC50,[1],17 µM
same,IC50,[5],25.2 µM
same,IC50,[2],16.6 µM
same,IC50,[3],11.4 µM
same,IC50,[4],20.2 µM
CCN(CC)CCNC(=O)c1c(C)[nH]c(/C=C2\C(=O)Nc3cc(-c4csc(-c5ccccc5)n4)ccc32)c1C,IC50,[1],0.6 µM
same,IC50,[6],0.19 µM
same,IC50,[3],1.8 µM
same,IC50,[4],3.73 µM
Cc1cc(C)c(/C=C2\C(=O)Nc3ccc(-c4ccccn4)cc32)[nH]1,IC50,[6],0.02 µM
Cc1ccc(-c2ccc3c(c2)/C(=C/c2[nH]c(C)cc2C)C(=O)N3)nc1,IC50,[6],0.05 µM
same,IC50,[3],37.3 µM
